“And” between values parts separate entries of the source, which are not always exact repeats. Equal entries are not always repeated. Toxic doses and inconclusive results are not listed. Cut-off read from the data, not from the text of the source: active = T/C of 150% or more; inactive = T/C below 125%.
System: L1210 leukemia ip in BDF1 mice, survival T/C
Experiment: NCI In Vivo Anticancer Drug Screen. Data for tumor model L1210 Leukemia (intraperitoneal) in B6D2F1 (BDF1) mice
Conditions: endpoint: mean survival time, higher = longer survival
Outline: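 Read-out is survival time, reported as the treated-group measurement over the vehicle-control measurement.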

[1] = dose: 50.0 mg/kg/injection, schedule: Q01DX009 (ip), vehicle: saline with Tween-80
[2] = dose: 100.0 mg/kg/injection, schedule: Q01DX009 (ip), vehicle: saline with Tween-80
[3] = dose: 100.0 mg/kg/injection, schedule: Q01DX005 (ip), vehicle: saline
[4] = dose: 200.0 mg/kg/injection, schedule: Q01DX005 (ip), vehicle: saline
[5] = dose: 100.0 mg/kg/injection, schedule: Q01DX009 (ip), vehicle: saline
[6] = dose: 100.0 mg/kg/injection, schedule: Q04DX003 (ip), vehicle: saline
[7] = dose: 200.0 mg/kg/injection, schedule: Q01DX009 (ip), vehicle: saline
[8] = dose: 200.0 mg/kg/injection, schedule: Q04DX003 (ip), vehicle: saline
[9] = dose: 200.0 mg/kg/injection, schedule: Q01DX009 (ip), vehicle: saline with Tween-80
[10] = dose: 100.0 mg/kg/injection, schedule: Q01DX009 (ip), vehicle: Klucel (hydroxypropylcellulose) (HPC)
[11] = dose: 100.0 mg/kg/injection, schedule: Q04DX003 (ip), vehicle: Klucel (hydroxypropylcellulose) (HPC)
[12] = dose: 200.0 mg/kg/injection, schedule: Q01DX009 (ip), vehicle: Klucel (hydroxypropylcellulose) (HPC)
[13] = dose: 200.0 mg/kg/injection, schedule: Q04DX003 (ip), vehicle: Klucel (hydroxypropylcellulose) (HPC)
[14] = dose: 400.0 mg/kg/injection, schedule: Q04DX003 (ip), vehicle: Klucel (hydroxypropylcellulose) (HPC)
[15] = dose: 100.0 mg/kg/injection, schedule: Q04DX002 (ip), vehicle: Klucel (hydroxypropylcellulose) (HPC)
[16] = dose: 200.0 mg/kg/injection, schedule: Q04DX002 (ip), vehicle: Klucel (hydroxypropylcellulose) (HPC)
[17] = dose: 400.0 mg/kg/injection, schedule: Q04DX002 (ip), vehicle: Klucel (hydroxypropylcellulose) (HPC)

Measured: T/C

CCOc1ccc(Nc2c3ccccc3nc3ccccc23)cc1
inactive: dose: 12.5 mg/kg/injection, schedule: Q01DX009 (ip), vehicle: saline with Tween-80 102 % of control | dose: 20.0 mg/kg/injection, schedule: Q01DX009 (ip), vehicle: saline with Tween-80 108 % of control | dose: 25.0 mg/kg/injection, schedule: Q01DX009 (ip), vehicle: saline with Tween-80 123 % of control | dose: 30.0 mg/kg/injection, schedule: Q01DX009 (ip), vehicle: saline with Tween-80 110 % of control | dose: 44.0 mg/kg/injection, schedule: Q01DX009 (ip), vehicle: saline with Tween-80 105 % of control | [1] 123 % of control | dose: 66.0 mg/kg/injection, schedule: Q01DX009 (ip), vehicle: saline with Tween-80 111 % of control and 123 % of control | [2] 94 % of control

Nc1ncnc2c1ncn2C1OC(C2CC2)C(O)C1O (configuration not stated)
inactive: dose: 25.0 mg/kg/injection, schedule: Q01DX005 (ip), vehicle: saline 111 % of control | dose: 50.0 mg/kg/injection, schedule: Q01DX005 (ip), vehicle: saline 104 % of control | [3] 98 % of control | [4] 94 % of control

CC(CO)NC(=O)C1C=C2c3cccc4[nH]cc(c34)CC2N(C)C1 (configuration not stated)
inactive: dose: 3.12 mg/kg/injection, schedule: Q04DX003 (ip), vehicle: saline 114 % of control | dose: 6.25 mg/kg/injection, schedule: Q04DX003 (ip), vehicle: saline 114 % of control | dose: 12.5 mg/kg/injection, schedule: Q01DX009 (ip), vehicle: saline 109 % of control | dose: 12.5 mg/kg/injection, schedule: Q04DX003 (ip), vehicle: saline 114 % of control | dose: 25.0 mg/kg/injection, schedule: Q01DX009 (ip), vehicle: saline 95 % of control | dose: 25.0 mg/kg/injection, schedule: Q04DX003 (ip), vehicle: saline 101 % of control | dose: 50.0 mg/kg/injection, schedule: Q01DX009 (ip), vehicle: saline 96 % of control | dose: 50.0 mg/kg/injection, schedule: Q04DX003 (ip), vehicle: saline 103 % of control | [5] 95 % of control | [6] 100 % of control | [7] 96 % of control | [8] 102 % of control

Cc1cc(Cl)c(Cl)cc1NC(=O)C(Br)C(Br)C(=O)O (configuration not stated)
inactive: [2] 97 % of control | [9] 96 % of control

CC12CCC(CC1)C2CO (configuration not stated)
inactive: [1] 105 % of control | [2] 98 % of control

CC(=O)NN(c1ccccc1)c1ccccc1
inactive: dose: 50.0 mg/kg/injection, schedule: Q01DX009 (ip), vehicle: Klucel (hydroxypropylcellulose) (HPC) 98 % of control | [10] 104 % of control | [11] 93 % of control | [12] 96 % of control | [13] 86 % of control | [14] 91 % of control

C=CCOCCO
inactive: [5] 108 % of control | [6] 100 % of control | [7] 108 % of control | [8] 95 % of control | dose: 400.0 mg/kg/injection, schedule: Q01DX009 (ip), vehicle: saline 101 % of control | dose: 400.0 mg/kg/injection, schedule: Q04DX003 (ip), vehicle: saline 100 % of control

COc1ccc(S(=O)(=O)Nc2cc(Cl)ccc2Cl)cc1
inactive: [2] 92 % of control | [9] 103 % of control | dose: 400.0 mg/kg/injection, schedule: Q01DX009 (ip), vehicle: saline with Tween-80 95 % of control

O=[N+]([O-])/C=C/c1ccco1
inactive: dose: 18.75 mg/kg/injection, schedule: Q04DX003 (ip), vehicle: saline with Tween-80 101 % of control | dose: 37.5 mg/kg/injection, schedule: Q04DX003 (ip), vehicle: saline with Tween-80 95 % of control | dose: 75.0 mg/kg/injection, schedule: Q04DX003 (ip), vehicle: saline with Tween-80 101 % of control

Nc1nnc(N)n1N
inactive: dose: 87.5 mg/kg/injection, schedule: Q04DX003 (ip), vehicle: Klucel (hydroxypropylcellulose) (HPC) 105 % of control | dose: 175.0 mg/kg/injection, schedule: Q04DX003 (ip), vehicle: Klucel (hydroxypropylcellulose) (HPC) 100 % of control | dose: 350.0 mg/kg/injection, schedule: Q04DX003 (ip), vehicle: Klucel (hydroxypropylcellulose) (HPC) 103 % of control

CCOC(=O)C1C(C)NC(=S)NC1c1ccccc1 (configuration not stated)
inactive: [15] 90 % of control | [16] 93 % of control | [17] 93 % of control

Cc1cc(Cl)ccc1NC(=O)c1ccccc1C(=O)O
inactive: [10] 96 % of control | [11] 98 % of control | [12] 93 % of control | [13] 91 % of control | dose: 400.0 mg/kg/injection, schedule: Q01DX009 (ip), vehicle: Klucel (hydroxypropylcellulose) (HPC) 102 % of control | [14] 93 % of control

Cc1ccc(C)c(N2CCN(c3ccncc3N)CC2)c1
inactive: dose: 75.0 mg/kg/injection, schedule: Q01DX001 (ip), vehicle: saline with Tween-80 98 % of control | dose: 75.0 mg/kg/injection, schedule: Q01DX009 (ip), vehicle: saline with Tween-80 95 % of control | dose: 150.0 mg/kg/injection, schedule: Q01DX001 (ip), vehicle: saline with Tween-80 93 % of control | dose: 150.0 mg/kg/injection, schedule: Q01DX009 (ip), vehicle: saline with Tween-80 102 % of control | dose: 300.0 mg/kg/injection, schedule: Q01DX001 (ip), vehicle: saline with Tween-80 101 % of control

Nc1ncn(C2OC(CO)C(O)C2O)n1 (configuration not stated)
inactive: [3] 105 % of control | [4] 103 % of control

N#CC(C(N)=O)n1cnc(C(N)=O)c1N (configuration not stated)
inactive: dose: 100.0 mg/kg/injection, schedule: Q01DX001 (ip), vehicle: carboxymethylcellulose (CMC) 97 % of control | dose: 200.0 mg/kg/injection, schedule: Q01DX001 (ip), vehicle: carboxymethylcellulose (CMC) 94 % of control | dose: 400.0 mg/kg/injection, schedule: Q01DX001 (ip), vehicle: carboxymethylcellulose (CMC) 96 % of control

CCOC(=O)c1ccc(NC(=O)Nc2cccc(Cl)c2)cc1
inactive: dose: 3.0 mg/kg/injection, schedule: Q01DX009 (ip), vehicle: Klucel (hydroxypropylcellulose) (HPC) 94 % of control | dose: 6.0 mg/kg/injection, schedule: Q01DX009 (ip), vehicle: Klucel (hydroxypropylcellulose) (HPC) 107 % of control | dose: 12.0 mg/kg/injection, schedule: Q01DX009 (ip), vehicle: Klucel (hydroxypropylcellulose) (HPC) 94 % of control | dose: 25.0 mg/kg/injection, schedule: Q01DX009 (ip), vehicle: Klucel (hydroxypropylcellulose) (HPC) 101 % of control | [10] 93 % of control

Cc1cc(=O)[nH]c2ccc(Cc3ccc4[nH]c(=O)cc(C)c4c3)cc12
inactive: dose: 100.0 mg/kg/injection, schedule: Q01DX001 (ip), vehicle: saline 102 % of control | dose: 200.0 mg/kg/injection, schedule: Q01DX001 (ip), vehicle: saline 102 % of control | dose: 400.0 mg/kg/injection, schedule: Q01DX001 (ip), vehicle: saline 107 % of control

Cc1cc(C)c(C)c(C(C)O)c1C (configuration not stated)
inactive: dose: 100.0 mg/kg/injection, schedule: Q04DX003 (ip), vehicle: saline with Tween-80 96 % of control | dose: 200.0 mg/kg/injection, schedule: Q04DX003 (ip), vehicle: saline with Tween-80 94 % of control

C[n+]1ccccc1C(=O)O (tested in a mixture with another compound)
inactive: [6] 101 % of control | [8] 98 % of control

CN(c1ccccc1)S(=O)(=O)c1cccc([N+](=O)[O-])c1
inactive: [11] 103 % of control | [13] 94 % of control | [14] 101 % of control

O=C(O)COc1ccc([N+](=O)[O-])cc1F
inactive: dose: 100.0 mg/kg/injection, schedule: Q04DX002 (ip), vehicle: other 102 % of control | dose: 200.0 mg/kg/injection, schedule: Q04DX002 (ip), vehicle: other 88 % of control | dose: 400.0 mg/kg/injection, schedule: Q04DX002 (ip), vehicle: other 91 % of control

O=C(Nc1cc([N+](=O)[O-])ccc1Cl)c1ccc(F)cc1
inactive: [15] 102 % of control | [16] 98 % of control | [17] 102 % of control

O=C(Nc1ccccc1)OC1CCCCC1OC(=O)Nc1ccccc1 (configuration not stated)
inactive: dose: 100.0 mg/kg/injection, schedule: Q04DX002 (ip), vehicle: saline with Tween-80 87 % of control | dose: 200.0 mg/kg/injection, schedule: Q04DX002 (ip), vehicle: saline with Tween-80 107 % of control | dose: 400.0 mg/kg/injection, schedule: Q04DX002 (ip), vehicle: saline with Tween-80 97 % of control
